Like-named read-outs stand apart in the source and are kept apart here.
Legend:
[1] = system: S. epidermidis biofilm; experiment: Biofilm prevention concentration (BPC), BisEDT and antibiotics; assay type: cell-based, Staphylococcus epidermidis; details: for Change of biofilm prevention concentration (BPC): 0.05 μg/ml BisEDT
Protocol: (§1) S. epidermidis grown in TSB+2% glucose in polystyrene plates for 48 h at 37° C. Gatifloxacin (GF), clindamycin (CM), minocycline (MC), gentamicin (GM), vancomycin (VM), cefazolin (CZ), nafcillin (NC), and rifampicin (RP). […]

[2] = system: MRSA clinical isolates; experiment: Broth dilution MIC in BHIG/X medium with subMIC BisEDT; assay type: cell-based, Staphylococcus aureus; details: 12 MRSA clinical isolates, BHIG/X, mean ± SD
Protocol: (§2) Broth dilution antimicrobial susceptibility studies were performed against 12 MRSA strains using several antibiotics combined with subMIC levels of BisEDT (Table 18). Both the biofilm-prevention concentration (BPC) and the minimum inhibitory concentration (MIC) were determined in a special biofilm culture medium (BHIG/X). […] These strains were already sensitive to vancomycin, but were made considerably moreso in the presence of subMIC BisEDT.
In this particular study, the data indicated synergy between BisEDT and cefepime (FIC<0.5), with many of the isolates at the breakpoint for sensitivity.

[3] = system: MRSA clinical isolates biofilm; experiment: Biofilm-prevention concentration (BPC) in BHIG/X medium with subMIC BisEDT; assay type: cell-based, Staphylococcus aureus; details: 12 MRSA clinical isolates, mean ± SD
Protocol: as §2

[4] = system: S. epidermidis S2400-1 biofilm; experiment: Biofilm prevention, BisEDT-antibiotic combinations; assay type: cell-based, Staphylococcus epidermidis; details: for Δ (0.05 BE), biofilm prevention: 0.05 μg/ml BisEDT
Protocol: as §1

[5] = system: MRSA clinical isolates; details: cited from earlier work; for MIC Standards, R (resistance): Standard MIC breakpoint for resistance; for MIC Standards, S (antibiotic sensitivity): Standard MIC breakpoint for sensitivity
[6] = system: S. epidermidis; experiment: Broth dilution MIC/MBC, BT-antibiotic combinations; assay type: cell-based, Staphylococcus epidermidis; details: for Δ (0.05 BE), MIC / Δ, MIC: 0.05 μg/ml BisEDT; for Δ (0.1 BE), MBC: 0.1 μg/ml BisEDT
Protocol: Materials & Methods. Susceptibility studies were performed by broth dilution in 96-well tissue culture plates (Nalge Nunc International, Denmark) in accordance with NCCLS protocols (National Committee for Clinical Laboratory Standards. (1997). Methods for Dilution Antimicrobial Susceptibility Tests for Bacteria that Grow Aerobically: Approved Standard M7-A2 and Informational Supplement M100-S10. NCCLS, Wayne, Pa., USA).
Briefly, overnight bacterial cultures were used to prepare 0.5 McFarland standard suspensions, which were further diluted 1:50 (˜2×10^6 cfu/mL) in cation-adjusted Mueller-Hinton broth medium (BBL, Cockeysville, Md., USA). BTs (prepared as described above) and antibiotics were added at incremental concentrations, keeping the final volume constant at 0.2 mL. Cultures were incubated for 24 h at 37° C. and turbidity was assessed by absorption at 630 nm using an ELISA plate reader (Biotek Instruments, Winooski, Vt., USA) according to the manufacturer's recommendations. […] Viable bacterial counts (cfu/mL) were determined by standard plating on nutrient agar.
The checkerboard method was used to assess the activity of antimicrobial combinations. The fractional inhibitory concentration index (FICI) and the fractional bactericidal concentration index (FBCI) were calculated, according to Eliopoulos et al. (Eliopoulos and Moellering, (1996) Antimicrobial combinations. In Antibiotics in Laboratory Medicine (Lorian, V., Ed.), pp. 330-96, Williams and Wilkins, Baltimore, Md., USA). Synergy was defined as an FICI or FBCI index of […], no interaction at >0.5-4 and antagonism at >4 (Odds, F C (2003) Synergy, antagonism, and what the chequerboard puts between them. Journal of Antimicrobial Chemotherapy 52:1). Synergy was also defined conventionally as ≧4-fold decrease in antibiotic concentration.

[7] = system: S. epidermidis; experiment: Growth inhibition (MIC) and MBC, BisEDT and antibiotics; assay type: cell-based, Staphylococcus epidermidis
Text: Results are expressed as the mean change in MIC (dilution steps) with increasing BisEDT (n=3). See legend in FIG. 5 for antibiotic definitions.
The MIC change was most pronounced for clindamycin and gentamicin, followed by vancomycin, cefazolin, minocycline, gatifloxacin and nafcillin, with rifampicin unaffected.
Minimum bactericidal concentration (MBC) for most antibiotics tested against S. epidermidis decreased slightly with subMIC BisEDT. […] Clindamycin is a bacteriostatic agent, which explains its lack of bactericidal activity. Cefazolin resistance was reversed with respect to the MBC [Domenico et al., 2003]. These effects were additive.

[8] = system: lawn of MRSA (Methicillin-resistant S. aureus); experiment: Antibiotic-soaked discs on bacterial lawn with and without BisEDT; assay type: cell-based, Staphylococcus aureus; details: antibiotic discs combined with BisEDT 0.05 μg/ml
Protocol: FIGS. 4A and 4B show the subinhibitory BisEDT reversing antibiotic-resistance to several antibiotics. Effects of antibiotics with and without BisEDT (0.05 μg/ml) on a lawn of MRSA (Methicillin-resistant S. aureus) is shown. […] [GM=gentamicin, CZ=cefazolin, FEP=cefepime, IPM=imipenim, SAM=ampicillin/sulbactam, LVX=levofloxacin.

[9] = system: MRSA; experiment: Combination MIC study, nafcillin or gentamicin + BisEDT, TSB with 2% glucose; assay type: cell-based, Staphylococcus aureus; details: for Fold reduction of antibiotic MIC90 by BisEDT: BisEDT 0.2 μg/ml; for FIC: antibiotic combined with BisEDT 0.2 μg/ml
Text: BTs reversed the resistance of all four gentamicin-resistant isolates tested to clinically relevant concentrations [Domenico et al., 2002]. The MICs for these antimicrobial agents was reduced substantially, especially for gentamicin.

[10] = system: S. epidermidis (methicillin-susceptible and methicillin-resistant); experiment: Graft infection rat model, quantitative graft culture; assay type: in vivo; details: rats, s.c. Dacron graft, explanted at 7 days, 0.1 mg/l BTs, 10 mg/l RIP, 10 mg/l rifampin
Protocol: As summarized in Table 21, implants impregnated with 0.1 μg/ml BisEDT, 10 μg/ml RIP and 10 μg/ml rifampin, alone or combined were implanted s.c. into rats. Physiological solution (1 ml) containing the MS and MR strains at 2×10^7 cfu/ml was inoculated onto the graft surface using a tuberculin syringe. All grafts were explanted at 7 days following implantation and sonicated for 5 minutes in sterile saline solution to remove the adherent bacteria. Quantitation of viable bacteria was obtained by culturing dilutions on blood agar plates. The limit of detection was approximately 10 cfu/cm^2.

[11] = S. epidermidis S2400-1, BisEDT 0 μg/ml
[12] = S. epidermidis S2400-1, BisEDT 0.0 μg/ml
[13] = S. epidermidis S2400-1, BisEDT 0.05 μg/ml
[14] = S. epidermidis S2400-1, BisEDT 0.1 μg/ml
[15] = S. epidermidis ATCC 35984, BisEDT 0.0 μg/ml
[16] = S. epidermidis ATCC 35984, BisEDT 0.05 μg/ml

Cc1nnc(SCC2=C(C(=O)O)N3C(=O)[C@@H](NC(=O)Cn4cnnn4)[C@H]3SC2)s1 [Cefazolin, cefazolin]
Change of biofilm prevention concentration (BPC) [1]: modest decreases
MIC ([2]; Staphylococcus aureus, MRSA, BisEDT 0 μg/mL, read-out: MIC): 93 ± 75 µg/mL
MIC ([2]; Staphylococcus aureus, MRSA, BisEDT 0.025 μg/mL, read-out: MIC): 99 ± 76 µg/mL
MIC ([2]; Staphylococcus aureus, MRSA, BisEDT 0.05 μg/mL, read-out: MIC): 90 ± 60 µg/mL
MIC ([2]; Staphylococcus aureus, MRSA, BisEDT 0.1 μg/mL, read-out: MIC): 45 ± 32 µg/mL
BPC ([3]; BisEDT 0 μg/mL): 109 ± 86 µg/mL
BPC ([3]; BisEDT 0.025 μg/mL): 76 ± 86 µg/mL
BPC ([3]; BisEDT 0.05 μg/mL): 76 ± 105 µg/mL
BPC ([3]; BisEDT 0.1 μg/mL): 34 ± 28 µg/mL
Δ (0.05 BE), biofilm prevention [4]: 2.8
Biofilm Prevention (antibiotic concentration) ([4]; BisEDT 0 μg/ml): 28 µg/mL
Biofilm Prevention (antibiotic concentration) ([4]; BisEDT 0.05 μg/ml): 10 µg/mL
Biofilm Prevention (antibiotic concentration) ([4]; BisEDT 0.1 μg/ml): 1 µg/mL
MIC Standards, R (resistance) [5]: ≧32 μg/ml
MIC Standards, S (antibiotic sensitivity) [5]: ≦8 μg/ml
Synergy, MBC ([6]; S. epidermidis S2400-1): + (Synergy was also defined conventionally as ≧4-fold decrease in antibiotic concentration)
Synergy, MIC ([6]; S. epidermidis S2400-1): + (Synergy was also defined conventionally as ≧4-fold decrease in antibiotic concentration)
Δ (0.05 BE), MIC ([6]; S. epidermidis S2400-1): 4.00
Δ (0.1 BE), MBC ([6]; S. epidermidis S2400-1): 4.80
MIC [6, 11]: 32 µg/mL
MBC [6, 12]: 48 µg/mL
MIC [6, 13]: 8 µg/mL
MBC [6, 14]: 10 µg/mL
MIC [6, 14]: 1 µg/mL
Reduction in MBC with subMIC BisEDT [7]: 4- to 5 fold
MIC change (growth inhibition) with BisEDT ([7]; 0.1 μg/ml (0.5 μM) BisEDT): resistance was reversed to clinically relevant levels
Antibiotic action on MRSA lawn with subMIC BisEDT [8]: enhanced antibiotic action

CCOc1ccc2ccccc2c1C(=O)N[C@@H]1C(=O)N2[C@@H]1SC(C)(C)[C@@H]2C(=O)O [Nafcillin]
Change of biofilm prevention concentration (BPC) [1]: remained unaffected
Fold reduction of antibiotic MIC90 by BisEDT [9]: over 4 fold
FIC [9]: 0.74
Δ (0.05 BE), biofilm prevention [4]: 0.8
Biofilm Prevention (antibiotic concentration) ([4]; BisEDT 0 μg/ml): 48 µg/mL
Biofilm Prevention (antibiotic concentration) ([4]; BisEDT 0.05 μg/ml): 64 µg/mL
Biofilm Prevention (antibiotic concentration) ([4]; BisEDT 0.1 μg/ml): 8 µg/mL
Δ, MIC ([6]; S. epidermidis ATCC 35984): 3.2
MIC [6, 15]: 16.00 µg/mL
MIC [6, 16]: 5.00 µg/mL
Δ (0.05 BE), MIC ([6]; S. epidermidis S2400-1): 0.89
Δ (0.1 BE), MBC ([6]; S. epidermidis S2400-1): 2.00
MIC [6, 11]: 171 µg/mL
MBC [6, 12]: 256 µg/mL
MIC [6, 13]: 192 µg/mL
MBC [6, 14]: 128 µg/mL
MIC [6, 14]: 68 µg/mL

bismuth-1,2-ethanedithiol [BisEDT]
Quantitative graft culture ([10]; methicillin-resistant S. epidermidis): 6.2 × 10^2 ± 2.3 × 10^2 cfu/cm^2
Quantitative graft culture ([10]; methicillin-susceptible S. epidermidis): 5.8 × 10^2 ± 0.9 × 10^2 cfu/cm^2

gentamicin
Fold reduction of BPC in presence of subMIC BisEDT ([1]; TSB + 2% glucose, 48 h): 4 fold
MIC ([2]; BisEDT 0 μg/mL): 81 ± 40 µg/mL
MIC ([2]; BisEDT 0.025 μg/mL): 60 ± 27 µg/mL
MIC ([2]; BisEDT 0.05 μg/mL): 58 ± 30 µg/mL
MIC ([2]; BisEDT 0.1 μg/mL): 48 ± 31 µg/mL
BPC ([3]; BisEDT 0 μg/mL): 81 ± 41 µg/mL
BPC ([3]; BisEDT 0.025 μg/mL): 63 ± 30 µg/mL
BPC ([3]; BisEDT 0.05 μg/mL): 53 ± 31 µg/mL
BPC ([3]; BisEDT 0.1 μg/mL): 33 ± 25 µg/mL
Fold reduction of antibiotic MIC90 by BisEDT [9]: over 10 fold
FIC [9]: 0.6
Synergy, biofilm prevention [4]: borderline
Δ (0.05 BE), biofilm prevention [4]: 3.9
Biofilm Prevention (antibiotic concentration) ([4]; BisEDT 0 μg/ml): 555 µg/mL
Biofilm Prevention (antibiotic concentration) ([4]; BisEDT 0.05 μg/ml): 144 µg/mL
Biofilm Prevention (antibiotic concentration) ([4]; BisEDT 0.1 μg/ml): 12 µg/mL
MIC Standards, R (resistance) [5]: ≧16 μg/ml
MIC Standards, S (antibiotic sensitivity) [5]: ≦4 μg/ml
Δ, MIC ([6]; S. epidermidis ATCC 35984): 13.3
MIC [6, 15]: 213.33 µg/mL
MIC [6, 16]: 16.00 µg/mL
Synergy, MBC ([6]; S. epidermidis S2400-1): + (Synergy was also defined conventionally as ≧4-fold decrease in antibiotic concentration)
Synergy, MIC ([6]; S. epidermidis S2400-1): + (Synergy was also defined conventionally as ≧4-fold decrease in antibiotic concentration)
Δ (0.05 BE), MIC ([6]; S. epidermidis S2400-1): 6.40
Δ (0.1 BE), MBC ([6]; S. epidermidis S2400-1): 6.00
MIC [6, 11]: 2048 µg/mL
MBC [6, 12]: 1536 µg/mL
MIC [6, 13]: 320 µg/mL
MBC [6, 14]: 256 µg/mL
MIC [6, 14]: 80 µg/mL
Reduction in MBC with subMIC BisEDT [7]: 4- to 16 fold
Antibiotic action on MRSA lawn with subMIC BisEDT [8]: enhanced antibiotic action
